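Five concentrations, 48 hours, 96-well plates. Here, GI50 denotes the concentration required for 50% inhibition of growth.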 Calls of active or inactive are those of the source. No stated cut-off is given here; in the data, active = GI50 up to about 1.1 µM and inactive = higher.
Legend:
Assay in all cases: NCI anticancer screen, dose series, 48 h
PC-3 = system: PC-3
A549 = system: A549
Hs-578T = system: Hs-578T
SW-620 = system: SW-620
SF-295 = system: SF-295
UACC-257 = system: UACC-257
SN12C = system: SN12C
HCC 2998 = system: HCC 2998
K562 = system: K562
NCI-H522 = system: NCI-H522
MOLT-4 = system: MOLT-4
MDA-MB-231 = system: MDA-MB-231
SK-MEL-5 = system: SK-MEL-5
UO-31 = system: UO-31
CAKI-1 = system: CAKI-1
RPMI-8226 = system: RPMI-8226
SNB-75 = system: SNB-75
OVCAR-4 = system: OVCAR-4

| Structure (SMILES) | GI50 (PC-3) | GI50 (A549) | GI50 (Hs-578T) | GI50 (SW-620) | GI50 (SF-295) | GI50 (UACC-257) | GI50 (SN12C) | GI50 (HCC 2998) | GI50 (K562) | GI50 (NCI-H522) | GI50 (MOLT-4) | GI50 (MDA-MB-231) | GI50 (SK-MEL-5) | GI50 (UO-31) | GI50 (CAKI-1) | GI50 (RPMI-8226) | GI50 (SNB-75) | GI50 (OVCAR-4) |
| --- | --- | --- | --- | --- | --- | --- | --- | --- | --- | --- | --- | --- | --- | --- | --- | --- | --- | --- |
| O=Cc1[nH]c(=O)[nH]c(=O)c1CCl | > 100 µM (inactive) | > 100 µM (inactive) | > 100 µM (inactive) | 38.7 µM (inactive) | > 100 µM (inactive) | > 100 µM (inactive) | > 100 µM (inactive) | > 100 µM (inactive) | 50.8 µM (inactive) | > 100 µM (inactive) | > 96.8 µM (inactive) | > 100 µM (inactive) | > 82 µM (inactive) | > 100 µM (inactive) | > 100 µM (inactive) | > 48.6 µM (inactive) | 10.9 µM (inactive) | > 60.5 µM (inactive) |
| O=C1/C(=N/O)Cc2c(Br)ccc(Br)c21 | 27.8 µM (inactive) | – | 37.8 µM (inactive) | 63.5 µM (inactive) | 34.6 µM (inactive) | 42.2 µM (inactive) | – | 24.2 µM (inactive) | 26 µM (inactive) | 27.5 µM (inactive) | 25.4 µM (inactive) | 46.9 µM (inactive) | 32.4 µM (inactive) | > 100 µM (inactive) | 42.4 µM (inactive) | 24.4 µM (inactive) | > 100 µM (inactive) | 33.3 µM (inactive) |
| CC1C(O)Oc2cc3c(cc2C1c1ccccc1O)OCO3 (configuration not stated) | 19.5 µM (inactive) | 30.1 µM (inactive) | 11.5 µM (inactive) | 39.1 µM (inactive) | 21.2 µM (inactive) | 30.1 µM (inactive) | 39.2 µM (inactive) | 38.5 µM (inactive) | 17.6 µM (inactive) | 17.1 µM (inactive) | 19.3 µM (inactive) | 34.6 µM (inactive) | 33.3 µM (inactive) | 28.8 µM (inactive) | 29.2 µM (inactive) | 16.7 µM (inactive) | 24.6 µM (inactive) | – |
| CCCNCC(O)CNc1ccc(NCC(O)CNCCC)c2c1C(=O)c1ccccc1C2=O (configuration not stated) | 1.95 µM (inactive) | 1.81 µM (inactive) | 3.61 µM (inactive) | 2.05 µM (inactive) | – | 7.85 µM (inactive) | 1.78 µM (inactive) | 1.38 µM (inactive) | 2.14 µM (inactive) | 1.21 µM (inactive) | 1.26 µM (inactive) | 2.98 µM (inactive) | 2.69 µM (inactive) | 12.6 µM (inactive) | 12.6 µM (inactive) | 1.69 µM (inactive) | 2.29 µM (inactive) | 3.07 µM (inactive) |
| Cc1nc2ccc(C(F)(F)F)cc2nc1NCc1ccc(Cl)c(Cl)c1 | 12.9 µM (inactive) | 16.4 µM (inactive) | 23.6 µM (inactive) | 18.9 µM (inactive) | 17.3 µM (inactive) | 15.9 µM (inactive) | 17.2 µM (inactive) | 10.5 µM (inactive) | 20.4 µM (inactive) | 14.8 µM (inactive) | 15.6 µM (inactive) | 15.8 µM (inactive) | 19.6 µM (inactive) | 15.9 µM (inactive) | 18.8 µM (inactive) | 17.1 µM (inactive) | 12.9 µM (inactive) | – |
| c1ccc2c(c1)nc1n2sc2nc3ccccc3n21 | > 100 µM (inactive) | > 100 µM (inactive) | > 100 µM (inactive) | > 100 µM (inactive) | > 100 µM (inactive) | > 100 µM (inactive) | > 100 µM (inactive) | > 100 µM (inactive) | > 100 µM (inactive) | 34.9 µM (inactive) | > 100 µM (inactive) | > 100 µM (inactive) | > 100 µM (inactive) | > 100 µM (inactive) | > 100 µM (inactive) | > 100 µM (inactive) | – | > 100 µM (inactive) |
| CCCCC(CCCC)=NNC(=S)SC | 40.1 µM (inactive) | 26.1 µM (inactive) | 44.2 µM (inactive) | 38.9 µM (inactive) | – | 24.9 µM (inactive) | 34.2 µM (inactive) | 15.4 µM (inactive) | 29.6 µM (inactive) | 17.1 µM (inactive) | 18 µM (inactive) | 28.3 µM (inactive) | 16.1 µM (inactive) | 24.7 µM (inactive) | – | – | 27.5 µM (inactive) | 18.9 µM (inactive) |
| COc1ccc2[nH]c3c(C)c4ncccc4c(C)c3c2c1 | 6.11 µM (inactive) | 2.18 µM (inactive) | > 10 µM (inactive) | 1.98 µM (inactive) | 2.43 µM (inactive) | > 10 µM (inactive) | 4.78 µM (inactive) | 8.97 µM (inactive) | 3.68 µM (inactive) | > 10 µM (inactive) | 4.04 µM (inactive) | > 10 µM (inactive) | > 10 µM (inactive) | – | > 10 µM (inactive) | 3.44 µM (inactive) | 9.91 µM (inactive) | 7.43 µM (inactive) |
| COc1cccc(C2c3cc4c(cc3OC3COC(=O)C32)OCO4)c1OC (configuration not stated) | > 100 µM (inactive) | > 100 µM (inactive) | 32.7 µM (inactive) | > 100 µM (inactive) | > 100 µM (inactive) | > 100 µM (inactive) | > 100 µM (inactive) | > 100 µM (inactive) | – | – | > 100 µM (inactive) | > 100 µM (inactive) | > 100 µM (inactive) | > 100 µM (inactive) | 37.6 µM (inactive) | – | 83.9 µM (inactive) | 64.6 µM (inactive) |
| CSc1ncnc2c1cnn2Cc1cn(COCCO)nn1 | 36 µM (inactive) | 51.8 µM (inactive) | > 100 µM (inactive) | 44.3 µM (inactive) | – | > 100 µM (inactive) | 64.6 µM (inactive) | 32.2 µM (inactive) | 38.4 µM (inactive) | – | – | > 100 µM (inactive) | 46.8 µM (inactive) | > 100 µM (inactive) | – | 34.3 µM (inactive) | – | 45.5 µM (inactive) |
| CCn1c(-c2ccc(OC)cc2)nc2c1C(=O)c1ccccc1C2=O | > 100 µM (inactive) | > 100 µM (inactive) | > 100 µM (inactive) | > 100 µM (inactive) | > 100 µM (inactive) | > 100 µM (inactive) | > 100 µM (inactive) | > 100 µM (inactive) | > 100 µM (inactive) | > 100 µM (inactive) | > 100 µM (inactive) | > 100 µM (inactive) | > 100 µM (inactive) | – | – | > 100 µM (inactive) | > 100 µM (inactive) | > 100 µM (inactive) |
| CC1(CNCc2ccccc2)CC(CCc2ccccc2)N(C(=O)c2ccc([N+](=O)[O-])cc2)C1Cc1ccc(O)cc1 (configuration not stated) | 10.7 µM (inactive) | 10.4 µM (inactive) | 13.5 µM (inactive) | 21.5 µM (inactive) | 11.2 µM (inactive) | 12.4 µM (inactive) | 6.76 µM (inactive) | 13.1 µM (inactive) | 33.7 µM (inactive) | 8.79 µM (inactive) | 13.2 µM (inactive) | 10.3 µM (inactive) | 5.35 µM (inactive) | 11.3 µM (inactive) | 12.9 µM (inactive) | 17.3 µM (inactive) | – | 9.91 µM (inactive) |
| Nc1ncnc2c1ncn2[C@@H]1C[C@H](NO)[C@@H](O)[C@H]1O | > 100 µM (inactive) | > 100 µM (inactive) | > 100 µM (inactive) | 26.9 µM (inactive) | > 100 µM (inactive) | > 100 µM (inactive) | > 100 µM (inactive) | > 100 µM (inactive) | 28.1 µM (inactive) | > 100 µM (inactive) | 83.4 µM (inactive) | > 100 µM (inactive) | > 100 µM (inactive) | 7.33 µM (inactive) | – | 10.8 µM (inactive) | > 100 µM (inactive) | > 100 µM (inactive) |
| Cc1ccc(C(=O)OC[C@H]2CC[C@@H](n3cc(N(C)C4CCCCC4)c(=O)[nH]c3=O)O2)cc1 | 29.4 µM (inactive) | 28.7 µM (inactive) | 35.8 µM (inactive) | 40 µM (inactive) | 15.7 µM (inactive) | 32.7 µM (inactive) | 20.7 µM (inactive) | > 100 µM (inactive) | 38 µM (inactive) | 24.3 µM (inactive) | 30 µM (inactive) | 14.9 µM (inactive) | 18.8 µM (inactive) | 13.9 µM (inactive) | 31.4 µM (inactive) | 31.4 µM (inactive) | – | 30.9 µM (inactive) |
| COc1cc(NCc2ccc3n2-c2ccccc2OC3)cc(OC)c1OC | 22.8 µM (inactive) | 17.6 µM (inactive) | 35.4 µM (inactive) | 35.6 µM (inactive) | 23.8 µM (inactive) | 20.1 µM (inactive) | 17.5 µM (inactive) | 16.1 µM (inactive) | 8.36 µM (inactive) | 12.7 µM (inactive) | – | 14.4 µM (inactive) | 15.6 µM (inactive) | 16.8 µM (inactive) | 27 µM (inactive) | 7.89 µM (inactive) | 23.8 µM (inactive) | 16.1 µM (inactive) |
| COC(=O)CCC(=O)c1ccc2c(c1)CC1(Cc3ccccc3C1)C2 | 41 µM (inactive) | 54.7 µM (inactive) | > 100 µM (inactive) | – | 38 µM (inactive) | 24.3 µM (inactive) | 82.6 µM (inactive) | 55.8 µM (inactive) | 0.218 µM (active) | 33.4 µM (inactive) | 17.7 µM (inactive) | > 100 µM (inactive) | 16.2 µM (inactive) | 42.9 µM (inactive) | – | 31.7 µM (inactive) | – | 32.1 µM (inactive) |
| CCOC(=O)c1sc(N/N=C2\NC(=O)/C(=C/c3ccc([N+](=O)[O-])cc3)S2)nc1C | 25.6 µM (inactive) | 28.3 µM (inactive) | 33.9 µM (inactive) | 31.8 µM (inactive) | 20.4 µM (inactive) | 15.6 µM (inactive) | 30.4 µM (inactive) | 27.4 µM (inactive) | – | 17.7 µM (inactive) | 10.3 µM (inactive) | 19.5 µM (inactive) | 16.8 µM (inactive) | 16.2 µM (inactive) | 22.1 µM (inactive) | – | 25.8 µM (inactive) | 26.1 µM (inactive) |
